Patent US20100247503A1, “METHOD FOR OBTAINING A SOLID COMPOSITION WITH RHODOTORULA MINUTA, WHICH IS EFFECTIVE FOR THE BIOLOGICAL CONTROL OF ANTHRACNOSE, AND RESULTING COMPOSITION” (priority 2006, published 2010)

Experiments:
Assay type in all cases: in vivo
[1] = system: Colletotrichum gloeosporioides; assay: Field tests with liquid compositions, pre-harvest application, severity of anthracnose on mango fruit; details: mango cv. Kent, five monthly pre-harvest sprays, fruit stored 15 days at 20° C., 85% RH, R. minuta 10^8, B. subtilis 10^6, mix 10^6+10^4 UFC/mL, Benomyl 0.5 g/L
Description: (§1) Application of treatments in the field. To verify field effectiveness we used an eight-year old commercial mango orchard cv. Kent, located in El Rosario, Sinaloa, Mexico. We selected the trees homogeneously to distribute them for each treatment (three trees per treatment). In each treatment there was a monthly application (five in total), using a backpack pump sprinkler operated at 400 pounds of pressure. We started during flowering (February) until the harvest (June or July), spraying suspensions of fresh or dried cells (previously hydrated), produced in semi-industrial fermenters. We sprayed 7 L of cell suspension on each selected mango tree, until all the foliage was wet. As a control treatment, we sprayed 7 L of irrigation water.
(§2) Quantifying the severity of anthracnose. For each treatment, 100 mango fruits were harvested at physiological maturity (Báez et al., 1993), and were stored under simulated marketing conditions at 20° C. and 85% relative humidity. We evaluated the severity of the disease after a minimum of 15 days of storage, using the presence of symptoms as indicator of the disease (anthracnose) in the fruit. […]
(§3) Statistical analysis. The study of the severity of the disease in mango fruits was analyzed using a completely randomized block design. […] The difference between treatments was determined by the Tukey test (p=0.05). […]

[2] = system: mango fruit (Mangifera indica) cv. Kent; assay: Assessing the quality of the fruit (weight loss, pH, titratable acidity, total soluble solids) during storage; details: 85% RH
Procedure: Assessing the quality of the fruit. Weight loss was assessed every third day by difference in weight with respect to the initial weight of the fruit, expressed as a percentage (Diaz-Pérez, 1998). The pH, titratable acidity (TA) and total soluble solids (TSS) were quantified according to the methodology proposed by the AOAC (1998) at 0, 6 and 12 days of storage. To determine the pH and acidity we used a Mettler automatic titrator (model DL-21) and the results were expressed in units of pH and percentage of citric acid, respectively. Total soluble solids were determined with a Leica Abbe Mark II type refractometer, temperature-compensated and previously calibrated with pure water. The results were expressed in Brix degrees (°Brix). For quality parameters, a fruit was selected as an experimental unit and five replications were used.
Statistical analysis. The study of the severity of the disease in mango fruits was analyzed using a completely randomized block design. Data from the evaluations of each treatment were subjected to unilateral variance analysis by Friedman ranges (p<0.05) using the SAS statistical system (SAS, 1998). The difference between treatments was determined by the Tukey test (p=0.05). For differences in the analysis of variance (ANOVA) of quality variables, the mediums were separated by Tukey multiple comparison test with a probability of error of 5%, using the Minitab statistical program version 13.1.
The same compositions presented in table 2 were used to study the effect of the application of biological control agents, subject of this invention, on the quality of mango fruit cv. Kent.

[3] = system: Colletotrichum gloeosporioides; assay: Field tests with solid dry compositions, pre-harvest application, severity of anthracnose on mango fruit; details: mango cv. Kent, mix 10^6+10^4 UFC/mL, Benomyl 0.5 g/L
Description: as §1, §2, §3

`CCCCNC(=O)n1c(NC(=O)OC)nc2ccccc21` [Benomyl] was tested, and the “% of severity after 15 days of storage” value [1] was 41.7 b %, the “% of severity after 15 days of storage” value ([1]; listed as chemical treatment) was 41.7% and the “Weight loss (%)” value ([2]; day 3 of storage at 20° C.) was 0.9 a %. The “Weight loss (%)” value ([2]; day 6 of storage at 20° C.) was 1.6 a %, the “Weight loss (%)” value ([2]; day 9 of storage at 20° C.) was 2.4 ab % and the “Weight loss (%)” value ([2]; day 12 of storage at 20° C.) was 3.4 ab %. The “Weight loss (%)” value ([2]; day 15 of storage at 20° C.) was 4.3 a %, the “Weight loss (%)” value ([2]; day 15 of storage at 20° C., listed as chemical treatment) was 4.3% and the “% severity” value [3] was 25.0 b %. For the same compound, the “% severity” value ([3]; listed as chemical treatment) was 36.2%.
